# Key:
# [1] = molecular target: Sigma intracellular receptor 2 (Homo sapiens, UniProt Q5BJF2); test: GPCRScan assay: inhibition of Sigma 2; design: radioligand conc. used [nm] 5.0, parental cells HEKT
# [2] = molecular target: L-type calcium channel, dihydropyridine site (Cav1.2 alpha-1C) (Homo sapiens, UniProt Q13936); test: Inhibition of Calcium Channel L-Type, Dihydropyridine at 10 µM in the Eurofins-Panlabs radioligand binding assay (Eurofins_assay_214600); design: ligand concentration 0.1 nM, non-specific ligand with concentration 1 µM Nitrendipine, incubation time 90 min, incubation temperature 25 °C; details: Wistar, rat, rat cerebral cortex preparation, probe [3H] Nitrendipine; compound concentration 10 uM; target entry is the homologue from another species
# [3] = molecular target: GABA-A receptor; anion channel (Rattus norvegicus) (UniProt O09028+P15431+P18506+P18508+P19969+P20236+P23574+P23576+P28471+P28473+P30191+P62813+P63079+P63138+Q91ZM7+Q9ES14); test: Inhibition of GABAA, Muscimol, Central at 10 µM in the Eurofins-Panlabs radioligand binding assay (Eurofins_assay_226500); format: protein-complex assay; details: Compound concentration 10.0 uM
# [4] = molecular target: Beta-adrenergic receptor kinase 1 (Homo sapiens, UniProt P25098); test: BARK1 [GRK2(ADR1LGG5)] Takeda global kinase panel
# [5] = molecular target: G protein-coupled receptor kinase 3 (Homo sapiens, UniProt P35626); test: BARK2 [GRK3(ADR2LGG5)] Takeda global kinase panel
# [6] = molecular target: Tyrosine-protein kinase Blk (Homo sapiens, UniProt P51451); test: BLK(BLK1CGF1) Takeda global kinase panel
# [7] = molecular target: Cytoplasmic tyrosine-protein kinase BMX (Homo sapiens, UniProt P51813); test: Etk [BMX(BMX1CGF1)] Takeda global kinase panel
# [8] = molecular target: Serine/threonine-protein kinase BRSK1 (Homo sapiens, UniProt Q8TDC3); test: BRSK1(BRS1LGA1) Takeda global kinase panel
# [9] = molecular target: Cyclin-dependent kinase 1 (Homo sapiens, UniProt P06493); test: CDC2 [CDK1(CDK1CGS1)] Takeda global kinase panel
# [10] = molecular target: Cyclin-dependent kinase 9 (Homo sapiens, UniProt P50750); test: CDK9(CDK9CGS1) Takeda global kinase panel
# [11] = molecular target: Dual specificity tyrosine-phosphorylation-regulated kinase 2 (Homo sapiens, UniProt Q92630); test: DYRK2(DYR2LGY1) Takeda global kinase panel
# Ephrin type-B receptor 2 = Ephrin type-B receptor 2 (Homo sapiens, UniProt P29323); test: EphB2(EPB2LGY1) Takeda global kinase panel
# [12] = molecular target: Tyrosine-protein kinase Fes/Fps (Homo sapiens, UniProt P07332); test: Fes(FES1LHY1) Takeda global kinase panel
# [13] = molecular target: G protein-coupled receptor kinase 5 (Homo sapiens, UniProt P34947); test: GRK5(GRK5LGP1) Takeda global kinase panel
# [14] = molecular target: Homeodomain-interacting protein kinase 2 (Homo sapiens, UniProt Q9H2X6); test: HIPK2(HIP2LGY1) Takeda global kinase panel
# [15] = molecular target: Serine/threonine-protein kinase ICK (Homo sapiens, UniProt Q9UPZ9); test: ICK(ICK1LGP1) Takeda global kinase panel
# LIM domain kinase 2 = LIM domain kinase 2 (Homo sapiens, UniProt P53671); test: LIMK2(LIM2LGV1) Takeda global kinase panel
# [16] = molecular target: Dual specificity mitogen-activated protein kinase kinase 6 (Homo sapiens, UniProt P52564); test: MKK6 [MAP2K6(M2K6LGF1)] Takeda global kinase panel
# [17] = molecular target: Mitogen-activated protein kinase kinase kinase 5 (Homo sapiens, UniProt Q99683); test: ASK [MAP3K5(M3K5LGA1)] Takeda global kinase panel
# [18] = molecular target: Mitogen-activated protein kinase kinase kinase kinase 4 (Homo sapiens, UniProt O95819); test: HGK [ZC1(M4K4CGP1)] Takeda global kinase panel
# [19] = molecular target: MAP kinase-activated protein kinase 2 (Homo sapiens, UniProt P49137); test: MAPKAPK2(MPK2LGRH) Takeda global kinase panel
# [20] = molecular target: Microtubule-associated serine/threonine-protein kinase 3 (Homo sapiens, UniProt O60307); test: MAST3(MAS3LGE1) Takeda global kinase panel
# [21] = molecular target: Serine/threonine-protein kinase greatwall (Homo sapiens, UniProt Q96GX5); test: MASTL(MASLLGE1) Takeda global kinase panel
# [22] = molecular target: Serine/threonine-protein kinase Nek11 (Homo sapiens, UniProt Q8NG66); test: Nek11(NE11LGRI) Takeda global kinase panel
# [23] = molecular target: Serine/threonine-protein kinase Nek9 (Homo sapiens, UniProt Q8TD19); test: Nek9(NEK9LGF1) Takeda global kinase panel
# [24] = molecular target: NUAK family SNF1-like kinase 2 (Homo sapiens, UniProt Q9H093); test: NuaK2(NUA2LHY1) Takeda global kinase panel
# [25] = molecular target: 5'-AMP-activated protein kinase catalytic subunit alpha-1 (Homo sapiens, UniProt Q13131); test: AMPKalpha1(PRA1PGF1) Takeda global kinase panel
# [26] = molecular target: Protein kinase C eta type (Homo sapiens, UniProt P24723); test: PKCeta(PRKHLGRA) Takeda global kinase panel
# [27] = molecular target: Receptor-interacting serine/threonine-protein kinase 1 (Homo sapiens, UniProt Q13546); test: RIPK1(RIP1PGN1) Takeda global kinase panel
# [28] = molecular target: Serine/threonine-protein kinase 32B (Homo sapiens, UniProt Q9NY57); test: YANK2(S32BLGY2) Takeda global kinase panel
# [29] = molecular target: Serine/threonine-protein kinase TNNI3K (Homo sapiens, UniProt Q59H18); test: HH498(TNNILGY1) Takeda global kinase panel
# [30] = molecular target: Serine/threonine-protein kinase ULK1 (Homo sapiens, UniProt O75385); test: ULK1(ULK1LGF1) Takeda global kinase panel
# [31] = molecular target: Serine/threonine-protein kinase VRK2 (Homo sapiens, UniProt Q86Y07); test: VRK2(VRK2LGRI) Takeda global kinase panel
# [32] = molecular target: 5-hydroxytryptamine receptor 1A (Homo sapiens) (UniProt P08908); details: Compound concentration 10.0 uM
# [33] = molecular target: Histamine H1 receptor (Homo sapiens) (UniProt P35367); details: Compound concentration 10.0 uM
# [34] = molecular target: Alpha-1A adrenergic receptor (Homo sapiens) (UniProt P35348); details: Compound concentration 10.0 uM
# [35] = molecular target: Beta-2 adrenergic receptor (Homo sapiens) (UniProt P07550); details: Compound concentration 10.0 uM
# [36] = molecular target: Muscarinic acetylcholine receptor M2 (Homo sapiens) (UniProt P08172); details: Compound concentration 10.0 uM
# [37] = molecular target: Alpha-2A adrenergic receptor (Homo sapiens) (UniProt P08913); details: Compound concentration 10.0 uM
# [38] = molecular target: Histamine H2 receptor (Homo sapiens) (UniProt P25021); details: Compound concentration 10.0 uM
# [39] = molecular target: Mu-type opioid receptor (Homo sapiens) (UniProt P35372); details: Compound concentration 10.0 uM
# [40] = molecular target: Sodium-dependent dopamine transporter (Homo sapiens) (UniProt Q01959); details: Compound concentration 10.0 uM
# Sodium-dependent dopamine transporter (Homo sapiens), sequence (Q01959 whole entry): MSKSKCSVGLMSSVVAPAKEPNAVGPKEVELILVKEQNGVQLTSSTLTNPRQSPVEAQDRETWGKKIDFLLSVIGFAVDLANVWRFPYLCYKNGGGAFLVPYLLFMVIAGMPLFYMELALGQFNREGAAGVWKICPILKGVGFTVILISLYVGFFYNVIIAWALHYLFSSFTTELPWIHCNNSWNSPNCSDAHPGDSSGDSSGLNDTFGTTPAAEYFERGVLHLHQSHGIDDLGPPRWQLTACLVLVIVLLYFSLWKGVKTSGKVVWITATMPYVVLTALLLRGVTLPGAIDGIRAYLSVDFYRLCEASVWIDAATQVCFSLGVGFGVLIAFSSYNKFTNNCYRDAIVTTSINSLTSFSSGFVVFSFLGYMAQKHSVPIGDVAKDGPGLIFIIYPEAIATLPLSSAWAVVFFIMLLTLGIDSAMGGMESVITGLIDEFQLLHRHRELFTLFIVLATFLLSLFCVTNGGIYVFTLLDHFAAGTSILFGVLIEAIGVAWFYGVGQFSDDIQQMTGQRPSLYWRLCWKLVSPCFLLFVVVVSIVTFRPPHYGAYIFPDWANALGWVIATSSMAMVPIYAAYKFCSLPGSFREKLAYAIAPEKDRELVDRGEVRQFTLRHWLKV
# Sigma intracellular receptor 2, sequence (Q5BJF2 whole entry): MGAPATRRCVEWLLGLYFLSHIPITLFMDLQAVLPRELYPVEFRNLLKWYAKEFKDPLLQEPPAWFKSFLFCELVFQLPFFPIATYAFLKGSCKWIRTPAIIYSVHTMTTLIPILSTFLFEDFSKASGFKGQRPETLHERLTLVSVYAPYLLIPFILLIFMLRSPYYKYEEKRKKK
# NUAK family SNF1-like kinase 2, sequence (Q9H093 whole entry): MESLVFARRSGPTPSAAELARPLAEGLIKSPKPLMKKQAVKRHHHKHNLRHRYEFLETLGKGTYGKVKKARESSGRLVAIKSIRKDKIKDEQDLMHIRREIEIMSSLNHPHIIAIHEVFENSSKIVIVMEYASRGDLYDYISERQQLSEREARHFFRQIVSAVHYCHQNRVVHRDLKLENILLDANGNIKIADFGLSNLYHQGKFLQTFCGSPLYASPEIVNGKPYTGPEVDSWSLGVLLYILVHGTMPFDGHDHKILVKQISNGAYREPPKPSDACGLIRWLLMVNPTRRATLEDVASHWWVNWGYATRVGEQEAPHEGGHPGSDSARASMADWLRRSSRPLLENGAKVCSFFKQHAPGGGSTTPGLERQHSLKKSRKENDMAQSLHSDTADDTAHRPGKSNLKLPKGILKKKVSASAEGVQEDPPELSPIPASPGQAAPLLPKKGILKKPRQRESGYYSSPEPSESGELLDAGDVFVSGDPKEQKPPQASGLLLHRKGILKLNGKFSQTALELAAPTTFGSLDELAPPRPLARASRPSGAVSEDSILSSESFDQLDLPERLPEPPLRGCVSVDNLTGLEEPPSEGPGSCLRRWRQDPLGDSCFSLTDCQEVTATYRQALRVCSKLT
# Serine/threonine-protein kinase Nek11, sequence (Q8NG66 whole entry): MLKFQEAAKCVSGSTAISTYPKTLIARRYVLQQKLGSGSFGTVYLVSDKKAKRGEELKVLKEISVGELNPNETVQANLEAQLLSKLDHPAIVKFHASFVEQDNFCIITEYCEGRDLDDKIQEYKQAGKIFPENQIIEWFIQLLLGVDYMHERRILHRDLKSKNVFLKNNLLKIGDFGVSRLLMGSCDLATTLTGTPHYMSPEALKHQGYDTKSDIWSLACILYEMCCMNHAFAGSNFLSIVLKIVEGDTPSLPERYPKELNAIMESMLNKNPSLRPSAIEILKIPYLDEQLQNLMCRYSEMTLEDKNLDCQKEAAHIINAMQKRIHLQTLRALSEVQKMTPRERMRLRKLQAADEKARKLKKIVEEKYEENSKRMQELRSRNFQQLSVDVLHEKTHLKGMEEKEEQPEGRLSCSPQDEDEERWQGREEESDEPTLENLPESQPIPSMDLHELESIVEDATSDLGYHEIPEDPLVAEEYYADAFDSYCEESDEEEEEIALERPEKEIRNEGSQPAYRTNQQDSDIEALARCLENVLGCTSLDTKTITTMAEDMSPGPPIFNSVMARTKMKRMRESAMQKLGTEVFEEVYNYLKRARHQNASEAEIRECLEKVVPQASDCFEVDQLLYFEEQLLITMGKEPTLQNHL
# Serine/threonine-protein kinase ULK1, sequence (O75385 whole entry): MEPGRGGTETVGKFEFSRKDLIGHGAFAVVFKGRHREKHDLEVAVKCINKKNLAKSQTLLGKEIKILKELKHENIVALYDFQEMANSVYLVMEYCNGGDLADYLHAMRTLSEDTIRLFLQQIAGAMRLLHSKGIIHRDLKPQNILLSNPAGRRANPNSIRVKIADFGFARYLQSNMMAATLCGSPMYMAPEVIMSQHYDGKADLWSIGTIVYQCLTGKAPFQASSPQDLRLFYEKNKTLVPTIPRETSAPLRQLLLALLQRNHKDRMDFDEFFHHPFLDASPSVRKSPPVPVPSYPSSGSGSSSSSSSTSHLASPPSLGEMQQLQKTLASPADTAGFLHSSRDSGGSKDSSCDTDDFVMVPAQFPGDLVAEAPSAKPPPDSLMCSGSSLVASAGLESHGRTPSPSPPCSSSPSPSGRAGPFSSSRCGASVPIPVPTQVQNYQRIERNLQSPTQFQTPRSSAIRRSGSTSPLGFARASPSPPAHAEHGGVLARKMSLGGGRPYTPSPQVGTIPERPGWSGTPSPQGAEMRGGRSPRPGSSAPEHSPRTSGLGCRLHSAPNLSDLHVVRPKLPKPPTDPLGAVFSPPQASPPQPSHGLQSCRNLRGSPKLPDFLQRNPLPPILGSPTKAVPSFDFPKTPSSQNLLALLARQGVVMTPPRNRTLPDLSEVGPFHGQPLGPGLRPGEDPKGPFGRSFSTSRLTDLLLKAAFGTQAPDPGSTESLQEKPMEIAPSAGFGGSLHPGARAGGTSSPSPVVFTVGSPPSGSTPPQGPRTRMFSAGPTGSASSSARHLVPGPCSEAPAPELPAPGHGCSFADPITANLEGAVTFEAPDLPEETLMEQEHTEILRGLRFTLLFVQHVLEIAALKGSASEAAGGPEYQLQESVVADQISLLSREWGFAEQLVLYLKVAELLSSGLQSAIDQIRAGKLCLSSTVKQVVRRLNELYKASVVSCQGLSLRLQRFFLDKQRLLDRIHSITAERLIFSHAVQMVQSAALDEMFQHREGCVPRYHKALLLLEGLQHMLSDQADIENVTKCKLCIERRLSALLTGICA
# Mu-type opioid receptor (Homo sapiens), sequence (P35372 whole entry): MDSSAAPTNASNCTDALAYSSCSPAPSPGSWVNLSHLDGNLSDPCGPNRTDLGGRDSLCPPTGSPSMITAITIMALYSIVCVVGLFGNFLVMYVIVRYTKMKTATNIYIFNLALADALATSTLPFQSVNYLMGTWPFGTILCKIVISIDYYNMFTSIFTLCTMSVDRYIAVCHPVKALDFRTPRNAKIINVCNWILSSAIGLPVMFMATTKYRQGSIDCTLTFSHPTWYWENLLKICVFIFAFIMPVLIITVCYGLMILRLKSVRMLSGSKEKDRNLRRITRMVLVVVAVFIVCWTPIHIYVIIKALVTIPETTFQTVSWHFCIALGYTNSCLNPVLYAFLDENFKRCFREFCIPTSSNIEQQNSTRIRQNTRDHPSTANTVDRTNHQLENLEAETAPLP
# Serine/threonine-protein kinase Nek9, sequence (Q8TD19 whole entry): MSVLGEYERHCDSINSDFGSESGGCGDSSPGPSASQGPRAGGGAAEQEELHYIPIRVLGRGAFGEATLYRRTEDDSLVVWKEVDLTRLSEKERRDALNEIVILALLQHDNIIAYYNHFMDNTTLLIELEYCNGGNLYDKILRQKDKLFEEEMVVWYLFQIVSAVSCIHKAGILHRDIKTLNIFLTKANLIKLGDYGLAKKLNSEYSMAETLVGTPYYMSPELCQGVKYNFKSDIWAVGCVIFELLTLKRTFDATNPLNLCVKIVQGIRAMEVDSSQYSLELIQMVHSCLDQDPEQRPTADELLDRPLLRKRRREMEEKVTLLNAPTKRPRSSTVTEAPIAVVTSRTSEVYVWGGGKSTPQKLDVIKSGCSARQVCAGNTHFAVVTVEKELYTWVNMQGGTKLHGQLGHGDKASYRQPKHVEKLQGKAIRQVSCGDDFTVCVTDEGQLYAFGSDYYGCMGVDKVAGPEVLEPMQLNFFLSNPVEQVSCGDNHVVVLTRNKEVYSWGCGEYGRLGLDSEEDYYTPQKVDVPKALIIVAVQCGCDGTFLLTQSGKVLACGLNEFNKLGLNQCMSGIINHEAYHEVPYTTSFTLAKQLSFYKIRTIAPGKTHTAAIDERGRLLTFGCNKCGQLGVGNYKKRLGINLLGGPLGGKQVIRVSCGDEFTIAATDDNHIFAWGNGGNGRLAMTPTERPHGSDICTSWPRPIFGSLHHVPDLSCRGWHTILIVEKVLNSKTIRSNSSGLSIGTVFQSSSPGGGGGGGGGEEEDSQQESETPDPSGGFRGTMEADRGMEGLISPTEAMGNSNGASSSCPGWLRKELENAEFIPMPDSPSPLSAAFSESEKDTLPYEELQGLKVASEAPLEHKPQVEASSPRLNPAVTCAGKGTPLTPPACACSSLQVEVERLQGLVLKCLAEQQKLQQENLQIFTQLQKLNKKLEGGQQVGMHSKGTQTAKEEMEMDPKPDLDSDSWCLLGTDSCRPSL
# MAP kinase-activated protein kinase 2, sequence (P49137 whole entry): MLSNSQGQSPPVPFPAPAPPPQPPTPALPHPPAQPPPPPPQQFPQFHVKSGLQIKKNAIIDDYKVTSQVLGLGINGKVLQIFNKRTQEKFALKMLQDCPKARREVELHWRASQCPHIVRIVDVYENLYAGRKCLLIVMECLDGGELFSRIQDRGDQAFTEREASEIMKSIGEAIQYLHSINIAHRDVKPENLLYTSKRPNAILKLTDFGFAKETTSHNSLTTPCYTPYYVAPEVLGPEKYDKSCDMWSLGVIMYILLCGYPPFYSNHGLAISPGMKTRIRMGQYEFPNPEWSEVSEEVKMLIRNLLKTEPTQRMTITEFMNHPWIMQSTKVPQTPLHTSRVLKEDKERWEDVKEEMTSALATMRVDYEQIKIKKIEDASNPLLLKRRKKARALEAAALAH
compound,measurement,setting,value
CN1C(=O)[C@@H](N2CCc3c(nn(Cc4ccccc4)c3Br)C2=O)COc2ccccc21 [TP-030-2],Ki,[1]; read-out: Ki,3.48 µM
same,Ki,[1]; read-out: pKi (converted),3.24 µM
same,"inhibition at 90 min, 10 µM",[2],29% (not active)
same,inhibition,[3],7%
same,IC50,[4],1 µM
same,IC50,[5],1 µM
same,IC50,[6],1 µM
same,IC50,[7],1 µM
same,IC50,[8],1 µM
same,IC50,[9],1 µM
same,IC50,[10],1 µM
same,IC50,[11],1 µM
same,IC50,Ephrin type-B receptor 2,1 µM
same,IC50,[12],1 µM
same,IC50,[13],1 µM
same,IC50,[14],1 µM
same,IC50,[15],1 µM
same,IC50,LIM domain kinase 2,1 µM
same,IC50,[16],1 µM
same,IC50,[17],1 µM
same,IC50,[18],1 µM
same,IC50,[19],1 µM
same,IC50,[20],1 µM
same,IC50,[21],1 µM
same,IC50,[22],1 µM
same,IC50,[23],1 µM
same,IC50,[24],1 µM
same,IC50,[25],1 µM
same,IC50,[26],1 µM
same,IC50,[27],0.01 µM
same,IC50,[28],1 µM
same,IC50,[29],1 µM
same,IC50,[30],1 µM
same,IC50,[31],1 µM
same,inhibition,[32],16.9%
same,inhibition,[33],9.99%
same,inhibition,[34],-4.83%
same,inhibition,[35],11.2%
same,inhibition,[36],-4.12%
same,inhibition,[37],43%
same,inhibition,[38],-8%
same,inhibition,[39],27%
same,inhibition,[40],35%
